Experimental findings from patent publication EP3290412A1, “HIV-1 NUCLEOCAPSID INHIBITORS” (Università degli Studi di Siena, priority 2016, dated 2018) are described below.

Read-outs that look alike come from different tables or passages of the source.

In one test the target is NC(11-55) (Human immunodeficiency virus type 1, UniProt P12493). The experiment in a line: NC inhibition assay (NC-induced cTAR DNA destabilization, fluorescence). The class given is biochemical, HIV-1. As to conditions: for inhibition at 100 µM: single point screening, positive = >25% inhibition at 100µM. The essentials:
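Doubly labelled cTAR (0.1 µM, Alexa488/Dabcyl) pre-complexed with 1 µM Zn-loaded NC(11-55) for 15 min, then compound added for a further 15 min; run at 20 °C in Tris-HCl pH 7.5, 30 mM NaCl, 0.2 mM MgCl2. Fluorescence read at ex 480/em 520 nm. IC50 taken from dose-response fit of % inhibition of NC-induced fluorescence increase.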

Test [1] addresses T1, full length (1-55) HIV-1 NCp7 (Human immunodeficiency virus type 1 group M subtype B, UniProt P12493).
T1 construct: recombinant full length (1-55) HIV-1 NCp7 proteins; made in house
The experiment in a line: Electromobility Shift Assay (EMSA), competition for ssDNA binding. Particulars: NCp7 300 nM, M13mp18 ssDNA; positive = >25% inhibition at 100µM. The essentials:
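Recombinant NL4-3 NCp7 (300 nM in the pre-mix) was combined with compound in 20 mM Tris-HCl pH 7.4, 2 mM MgCl2, 100 mM NaCl, 1 mM DTT, then M13mp18 ssDNA was added for 25 min at 37 °C. Complexes were run on 1% agarose/0.5x TBE and stained with SybrGold. IC50 is the concentration at which bound ssDNA migrated 50% of the bound–unbound distance (triplicate).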

The test system of test [2] is HIV-1 reference strain NL4-3. Briefly: BiCycle assay (MT-2 then TZM-bl cells). The class given is cell-based. The essentials:
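MT-2 cells were infected with NL4-3 in the presence of five-fold compound dilutions. After 72 h, the supernatant was passed to TZM-bl cells. Two days later, luciferase luminescence was read and IC50 calculated, giving a readout that spans the whole replication cycle.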

Setting [3] is: Human immunodeficiency virus 1, NL43, TZM-bl, read-out: BiCycle IC50 nM.

At NC(11-55), `C[C@@H](NC(=O)c1nc(-c2cc(C(=O)OCc3ccccc3)ccn2)nc(O)c1O)C1CCCCC1` [Compound 46, benzyl (R)-2-(4-((1-cyclohexylethyl)carbamoyl)-5,6-dihydroxypyrimidin-2-yl)isonicotinate] showed an IC50 of 10 µM and an inhibition at 100 µM of more than 25%. For the same compound, the EMSA screening results in test [1] is recorded as “Positive (A compound showing >25% inhibition when tested at 100µM concentration is considered as "positive")”. In addition, in test [2] (setting [3]), the IC50 was 543 nM.

Take `C[C@@H](NC(=O)c1nc(-c2nccc3ccccc23)nc(O)c1O)C1CCCCC1` [Compound 31, (R)-N-(1-cyclohexylethyl)-5,6-dihydroxy-2-(isoquinolin-1-yl)pyrimidine-4-carboxamide]: on NC(11-55), the IC50 worked out at 3.5 µM and the inhibition at 100 µM is more than 25%. For the same compound, in test [1], the EMSA screening results is listed as “Positive (A compound showing >25% inhibition when tested at 100µM concentration is considered as "positive")”. The IC50 in test [2] (setting [3]) is 100 nM. For the same compound, in test [2] (Human immunodeficiency virus 1, NL43, TZM-bl, read-out: Mean EC50 (nM)), the EC50 was determined as 100 nM.

For the compound `C[C@@H](NC(=O)c1nc(-c2ccc(C(=O)OCc3ccccc3)cn2)nc(O)c1O)C1CCCCC1` [Compound 21, benzyl (R)-6-(4-((1-cyclohexylethyl)carbamoyl)-5,6-dihydroxypyrimidin-2-yl)nicotinate], on NC(11-55), inhibition was half-maximal at 10 µM (IC50) and the inhibition at 100 µM is more than 25%. In test [1], the EMSA screening results is “Positive (A compound showing >25% inhibition when tested at 100µM concentration is considered as "positive")”. For the same compound, the IC50 in test [2] (setting [3]) stood at 118 nM.

As for `C[C@H](NC(=O)c1nc(-c2ccc(N)cn2)nc(O)c1O)C1CCCCC1` [Compound 81, (S)-2-(5-aminopyridin-2-yl)-N-(1-cyclohexylethyl)-5,6-dihydroxypyrimidine-4-carboxamide], the IC50 against NC(11-55) is 22 µM; in test [2] (setting [3]), 222 nM. At NC(11-55), this compound returned an inhibition at 100 µM of more than 25%. Also, the EMSA screening results in test [1] is listed as “Positive (A compound showing >25% inhibition when tested at 100µM concentration is considered as "positive")”.

With `Cc1cccc(-c2nc(O)c(O)c(C(=O)N[C@H](C)C3CCCCC3)n2)n1` [Compound 18, (R)-N-(1-cyclohexylethyl)-5,6-dihydroxy-2-(6-methylpyridin-2-yl)pyrimidine-4-carboxamide], on NC(11-55), the IC50 is 20 µM and the inhibition at 100 µM was more than 25%. In addition, the EMSA screening results in test [1] is listed as “Positive (A compound showing >25% inhibition when tested at 100µM concentration is considered as "positive")”. Besides, the IC50 in test [2] (setting [3]) is 437 nM.

For the compound `C[C@H](NC(=O)c1nc(-c2nccc3[nH]ccc23)nc(O)c1O)C1CCCCC1` [Compound 86, (S)-N-(1-cyclohexylethyl)-5,6-dihydroxy-2-(1H-pyrrolo[3,2-c]pyridin-4-yl)pyrimidine-4-carboxamide], the IC50 was found to be 5.5 µM at NC(11-55) (cTAR DNA 0.1 µM, 1 µM NC(11-55), 20 °C, pH 7.5, read-out: NC inhibition IC50) and 2280 nM in test [2] (setting [3]). On NC(11-55), this compound yielded an inhibition at 100 µM of more than 25%. For the same compound, in test [1], the EMSA screening results was “Positive (A compound showing >25% inhibition when tested at 100µM concentration is considered as "positive")”.

With `CCNS(=O)(=O)c1ccc(-c2nc(O)c(O)c(C(=O)N[C@H](C)C3CCCCC3)n2)nc1` [Compound 89, (R)-N-(1-cyclohexylethyl)-2-(5-(N-ethylsulfamoyl)pyridin-2-yl)-5,6-dihydroxypyrimidine-4-carboxamide], at NC(11-55), the IC50 turned out to be 28 µM and the inhibition at 100 µM was more than 25%. For the same compound, the EMSA screening results in test [1] is recorded as “Negative”. Further, in test [2] (setting [3]), the IC50 amounted to 10400 nM.

On NC(11-55), `COc1ccnc(-c2nc(O)c(O)c(C(=O)NC3CCC(C)(C)CC3)n2)c1` [Compound 77, N-(4,4-dimethylcyclohexyl)-5,6-dihydroxy-2-(4-methoxypyridin-2-yl)pyrimidine-4-carboxamide] had an IC50 of 23.5 µM and an inhibition at 100 µM of more than 25%. In addition, the EMSA screening results in test [1] is recorded as “Positive (A compound showing >25% inhibition when tested at 100µM concentration is considered as "positive")”. For the same compound, the IC50 in test [2] (setting [3]) amounted to 1170 nM.

Take `Cc1cccnc1-c1nc(O)c(O)c(C(=O)OCC2CCCCC2)n1` [Compound 10, cyclohexylmethyl 5,6-dihydroxy-2-(3-methylpyridin-2-yl)pyrimidine-4-carboxylate]: on NC(11-55), the 50% inhibitory concentration (IC50) was found to be 55 µM and the inhibition at 100 µM was more than 25%. Further, in test [1], the EMSA screening results is “Negative”. Also, the IC50 in test [2] (setting [3]) is 1400 nM.

For the compound `CC1CCC(NC(=O)c2nc(-c3ccccn3)nc(O)c2O)CC1` (stereo not shown) [Compound 56, 5,6-dihydroxy-N-(4-methylcyclohexyl)-2-(pyridin-2-yl)pyrimidine-4-carboxamide], the IC50 on NC(11-55) is 35 µM; in test [2] (setting [3]) it was 341 nM. The compound further returned an inhibition at 100 µM against NC(11-55) of more than 25%. For the same compound, the EMSA screening results in test [1] is listed as “Positive (A compound showing >25% inhibition when tested at 100µM concentration is considered as "positive")”.

On to `COc1cccc(-c2nc(O)c(O)c(C(=O)N[C@H](C)C3CCCCC3)n2)n1` [Compound 37, (R)-N-(1-cyclohexylethyl)-5,6-dihydroxy-2-(6-methoxypyridin-2-yl)pyrimidine-4-carboxamide], for which, at NC(11-55), half-maximal inhibition (IC50) required 29 µM and the inhibition at 100 µM is more than 25%. For the same compound, the EMSA screening results in test [1] is “Positive (A compound showing >25% inhibition when tested at 100µM concentration is considered as "positive")”. In addition, the IC50 in test [2] (setting [3]) turned out to be 332 nM.

On to `O=C(NCC1CC1)c1nc(-c2ccccn2)nc(O)c1O` [Compound 3, N-(cyclopropylmethyl)-5,6-dihydroxy-2-(pyridin-2-yl)pyrimidine-4-carboxamide], for which, at NC(11-55), the IC50 worked out at 390 µM and the inhibition at 100 µM was more than 25%. The EMSA screening results in test [1] is “Negative”. The IC50 in test [2] (setting [3]) is 1410 nM.

In the case of `C[C@@H](NC(=O)c1nc(-c2ccc(C(N)=O)cn2)nc(O)c1O)C1CCCCC1` [Compound 51, (R)-2-(5-carbamoylpyridin-2-yl)-N-(1-cyclohexylethyl)-5,6-dihydroxypyrimidine-4-carboxamide], the IC50 at NC(11-55) was 10 µM; in test [2] (setting [3]), 10600 nM. Further, the inhibition at 100 µM against NC(11-55) was more than 25%. Moreover, in test [1], the EMSA screening results was “Negative”.

Regarding `Cc1cccnc1-c1nc(O)c(O)c(C(=O)N[C@@H](C)C2CCCCC2)n1` [Compound 39, (S)-N-(1-cyclohexylethyl)-5,6-dihydroxy-2-(3-methylpyridin-2-yl)pyrimidine-4-carboxamide], the IC50 stood at 27 µM against NC(11-55) and 76.5 nM in test [2] (setting [3]). This compound yielded an inhibition at 100 µM against NC(11-55) of more than 25%. The EMSA screening results in test [1] was “Negative”.

At NC(11-55), `C[C@H](NC(=O)c1nc(-c2ccccn2)nc(O)c1O)C1CCCCC1` [Compound 38, (S)-N-(1-cyclohexylethyl)-5,6-dihydroxy-2-(pyridin-2-yl)pyrimidine-4-carboxamide] returned an IC50 of 46.5 µM and an inhibition at 100 µM of more than 25%. For the same compound, the EMSA screening results in test [1] is on record as “Positive (A compound showing >25% inhibition when tested at 100µM concentration is considered as "positive")”. Further, in test [2] (setting [3]), the IC50 is 154 nM.

Regarding `CC(C)(CNC(=O)c1nc(-c2ccccn2)nc(O)c1O)C1CCCC1` [Compound 63, N-(2-cyclopentyl-2-methylpropyl)-5,6-dihydroxy-2-(pyridin-2-yl)pyrimidine-4-carboxamide], the results for the IC50 (at NC(11-55); in test [2] (setting [3])) were 7 µM and 125 nM, respectively. Further, the inhibition at 100 µM against NC(11-55) is more than 25%. Besides, the EMSA screening results in test [1] is on record as “Positive (A compound showing >25% inhibition when tested at 100µM concentration is considered as "positive")”.

At NC(11-55), `Cc1ccnc(-c2nc(O)c(O)c(C(=O)N[C@H](C)C3CCCCC3)n2)c1` [Compound 19, (R)-N-(1-cyclohexylethyl)-5,6-dihydroxy-2-(4-methylpyridin-2-yl)pyrimidine-4-carboxamide] registered an IC50 of 8.5 µM and an inhibition at 100 µM of more than 25%. The EMSA screening results in test [1] was “Positive (A compound showing >25% inhibition when tested at 100µM concentration is considered as "positive")”. In test [2] (setting [3]), the IC50 stood at 218 nM.

Regarding `C[C@H](NC(=O)c1nc(-c2nccc3ccccc23)nc(O)c1O)C1CCCCC1` [Compound 80, (S)-N-(1-cyclohexylethyl)-5,6-dihydroxy-2-(isoquinolin-1-yl)pyrimidine-4-carboxamide], on NC(11-55), the half-maximal inhibitory concentration (IC50) came to 11 µM and the inhibition at 100 µM is more than 25%. Besides, in test [1], the EMSA screening results was “Positive (A compound showing >25% inhibition when tested at 100µM concentration is considered as "positive")”. In test [2] (setting [3]), the IC50 turned out to be 144 nM.

On NC(11-55), `C[C@@H](NC(=O)c1nc(-c2cc(OCc3ccccc3)ccn2)nc(O)c1O)C1CCCCC1` [Compound 35, (R)-2-(4-(benzyloxy)pyridin-2-yl)-N-(1-cyclohexylethyl)-5,6-dihydroxypyrimidine-4-carboxamide] showed an inhibition at 100 µM of more than 25%. In addition, in test [1], the EMSA screening results is recorded as “Positive (A compound showing >25% inhibition when tested at 100µM concentration is considered as "positive")”. For the same compound, in test [2] (Human immunodeficiency virus 1, NL43, MT-2 cells 72 hours then TZM-bl cells two days, NL4-3, read-out: BiCycle IC50), the IC50 came out at 530 nM.

As usually defined, the IC50 is the point on the concentration scale where inhibition reaches its midpoint. A word on the inhibition: it is the drop in the measured response relative to a control, in per cent. A higher inhibition goes with a strong effect. For orientation: EC50 means the midpoint of the concentration-response curve.
